Laboratory results reported in the supplement of paper PMC13380429.

Columns and labels:
Settings in all cases: 72 h
HepG2 [1] = assay: drug sensitivity score (DSS) for viability; higher = more toxic; extreme values may be limits of the assay
Calu-3 [2] = assay: as above
Vero E6 [3] = assay: as above
U2OS [4] = assay: as above
Caco-2 [5] = assay: as above
HepG2 [6] = assay: cell viability relative to DMSO; higher = less toxic
Calu-3 [7] = assay: as above
Vero E6 [8] = assay: as above
U2OS [9] = assay: as above
Caco-2 [10] = assay: as above
HepG2 [11] = assay: relative viability EC50 (midpoint between 100% and the lowest measured viability); higher = less toxic
Calu-3 [12] = assay: as above
Vero E6 [13] = assay: as above
U2OS [14] = assay: as above
Caco-2 [15] = assay: as above

| Compound | drug sensitivity score (HepG2 [1]) | drug sensitivity score (Calu-3 [2]) | drug sensitivity score (Vero E6 [3]) | drug sensitivity score (U2OS [4]) | drug sensitivity score (Caco-2 [5]) | cell viability (HepG2 [6]; 1 nM) [%] | cell viability (HepG2 [6]; 10 nM) [%] | cell viability (HepG2 [6]; 100 nM) [%] | cell viability (HepG2 [6]; 1000 nM) [%] | cell viability (HepG2 [6]; 10000 nM) [%] | cell viability (Calu-3 [7]; 1 nM) [%] | cell viability (Calu-3 [7]; 10 nM) [%] | cell viability (Calu-3 [7]; 100 nM) [%] | cell viability (Calu-3 [7]; 1000 nM) [%] | cell viability (Calu-3 [7]; 10000 nM) [%] | cell viability (Vero E6 [8]; 1 nM) [%] | cell viability (Vero E6 [8]; 10 nM) [%] | cell viability (Vero E6 [8]; 100 nM) [%] | cell viability (Vero E6 [8]; 1000 nM) [%] | cell viability (Vero E6 [8]; 10000 nM) [%] | cell viability (U2OS [9]; 1 nM) [%] | cell viability (U2OS [9]; 10 nM) [%] | cell viability (U2OS [9]; 100 nM) [%] | cell viability (U2OS [9]; 1000 nM) [%] | cell viability (U2OS [9]; 10000 nM) [%] | cell viability (Caco-2 [10]; 1 nM) [%] | cell viability (Caco-2 [10]; 10 nM) [%] | cell viability (Caco-2 [10]; 100 nM) [%] | cell viability (Caco-2 [10]; 1000 nM) [%] | cell viability (Caco-2 [10]; 10000 nM) [%] | relative viability EC50 (HepG2 [11]) [µM] | relative viability EC50 (Calu-3 [12]) [µM] | relative viability EC50 (Vero E6 [13]) [µM] | relative viability EC50 (U2OS [14]) [µM] | relative viability EC50 (Caco-2 [15]) [µM] |
| --- | --- | --- | --- | --- | --- | --- | --- | --- | --- | --- | --- | --- | --- | --- | --- | --- | --- | --- | --- | --- | --- | --- | --- | --- | --- | --- | --- | --- | --- | --- | --- | --- | --- | --- | --- |
| O=C1NCCNC1c1cccs1 (stereo not given) [tenilsetam] | 0 | 0 | 0 | 0 | 0 | 106 | 106 | 96.4 | 97.2 | 92.3 | 92.3 | 98.2 | 100 | 97.1 | 99.1 | 97.2 | 103 | 90.1 | 97.7 | 101 | 103 | 96.3 | 104 | 96.2 | 102 | 105 | 95.1 | 103 | 97.5 | 97.4 | > 10 | > 10 | > 10 | > 10 | > 10 |
| CN(C/C=C/C#CC(C)(C)C)Cc1cccc2ccccc12 [terbinafine] | 0 | 0 | 0 | 0 | 0 | 99.4 | 91.9 | 101 | 99.6 | 89 | 103 | 102 | 106 | 92.9 | 114 | 104 | 94.2 | 109 | 94.5 | 95.6 | 103 | 98.9 | 95.3 | 99.5 | 102 | 93 | 81.1 | 90.5 | 112 | 88.5 | > 10 | > 10 | > 10 | > 10 | > 10 |
| Clc1ccc(C(Cn2ccnc2)OCc2ccsc2Cl)c(Cl)c1 (stereo not given) [tioconazole] | 0 | 0 | 0 | 0 | 0.6 | 108 | 100 | 112 | 102 | 90.7 | 103 | 92.8 | 102 | 90.8 | 99.5 | 100 | 104 | 99.8 | 97 | 101 | 100 | 97.2 | 96.9 | 92.9 | 93 | 106 | 95 | 93.5 | 99 | 81.2 | > 10 | > 10 | > 10 | > 10 | > 10 |
| CC(=O)Nc1cccc(-n2c(=O)n(C3CC3)c(=O)c3c(Nc4ccc(I)cc4F)n(C)c(=O)c(C)c32)c1 [trametinib] | 30.5 | 19 | 19.2 | 9 | 26.5 | 99.3 | 45.5 | 30.5 | 25.3 | 23.2 | 94.8 | 73.6 | 62 | 33.8 | 24.8 | 101 | 94.2 | 67.9 | 15.7 | 15.8 | 99.3 | 91.9 | 89.7 | 60.8 | 29.3 | 80.4 | 65.4 | 40.6 | 21.3 | 16 | 0.0064 | 0.0536 | 0.129 | 0.695 | 0.0156 |
